The results in this text go back to patent publication US10611740B2, “Aryl dihydro-2H-benzo[b][1,4]oxazine sulfonamide and related compounds for use as agonists of RORγ and the treatment of disease” (Lycera Corporation, priority 2015, dated 2020).

Each structure is given as a SMILES string.

By EC50 is commonly meant the concentration that produces a half-maximal response. High values mean a need for much substance, low ones an effect from little substance.

The assay addresses T1, RORγ-LBD (Homo sapiens, UniProt P51449).
T1 construct: made in house; host or cells: SF9 cells (baculovirus)
T1 sequence (P51449 269-508 limits assumed): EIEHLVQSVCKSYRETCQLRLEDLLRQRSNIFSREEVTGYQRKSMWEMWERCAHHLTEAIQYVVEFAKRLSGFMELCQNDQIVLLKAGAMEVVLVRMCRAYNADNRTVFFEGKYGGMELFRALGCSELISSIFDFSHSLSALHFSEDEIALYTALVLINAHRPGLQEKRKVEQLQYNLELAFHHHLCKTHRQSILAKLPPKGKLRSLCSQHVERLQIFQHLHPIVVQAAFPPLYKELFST
Briefly: RORγ-Ligand Binding Domain (LBD) TR-FRET Assay.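 For TR-FRET Assay Max Response: 665/615 nm ratio relative to signal without ursolic acid or compound set at 100.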 The format is biochemical. Put shortly:
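SF9 lysate containing His-RORγ-LBD, ~3 nM final; coactivator peptide biotin-SRC1 LXXLL, 200 nM final; ursolic acid 2 μM final; DMSO 1% final; Tris pH 7.0 buffer with KCl, EDTA, DTT, BSA. TR-FRET format.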
On the technique in general: In TR-FRET formats the signal depends on donor and acceptor labels being close together.
Take `O=C(O)CC[C@H]1CN(S(=O)(=O)c2cccc(C(F)(F)F)c2)c2cc(-c3ccc(Cl)cc3)ccc2O1` [Compound 2B, (S)-3-(6-(4-chlorophenyl)-4-((3-(trifluoromethyl)phenyl)-sulfonyl)-3,4-dihydro-2H-benzo[b][1,4]oxazin-2-yl)propanoic acid]: the EC50 is under 500 nM and the “TR-FRET Assay Max Response” value is “** (The symbol “**” indicates a value in the range of greater than 90 to 150)”.
For `C[C@H](C[C@H]1CN(S(=O)(=O)c2cccc(C(F)(F)F)c2)c2cc(-c3cc(F)cc(F)c3)ccc2O1)C(=O)O` [Compound 46J, (R)-3-((S)-6-(3,5-difluorophenyl)-4-((3-(trifluoromethyl)phenyl)-sulfonyl)-3,4-dihydro-2H-benzo[b][1,4]oxazin-2-yl)-2-methylpropanoic acid] the same measures were under 500 nM and “*** (The symbol “***” indicates a value in the range of greater than 150 to 200)”.
In the case of `O=C(O)CC[C@H]1CN(S(=O)(=O)c2cccc(C(F)(F)F)c2)c2cc(-c3ccnc(Cl)n3)ccc2O1` [Compound 4AX, (S)-3-(6-(2-chloropyrimidin-4-yl)-4-((3-(trifluoromethyl)-phenyl)sulfonyl)-3,4-dihydro-2H-benzo[b][1,4]oxazin-2-yl)propanoic acid], the EC50 lay within 500 to 5000 nM and the “TR-FRET Assay Max Response” value is on record as “** (The symbol “**” indicates a value in the range of greater than 90 to 150)”.
For `O=C(O)[C@H]1C[C@@H]([C@H]2CN(S(=O)(=O)c3cccc(C(F)(F)F)c3)c3cc(-c4cccc(C(F)(F)F)n4)ccc3O2)C1` [Compound 71, (1R,3s)-3-((S)-4-((3-(trifluoromethyl)phenyl)sulfonyl)-6-(6-(trifluoromethyl)pyridin-2-yl)-3,4-dihydro-2H-benzo[b][1,4]oxazin-2-yl)cyclobutane-1-carboxylic acid] the same measures were under 500 nM and “*** (The symbol “***” indicates a value in the range of greater than 150 to 200)”.
For `C[C@H](C[C@H]1CN(S(=O)(=O)c2cccc(C(F)(F)F)c2)c2cc(-c3cccc(C(F)(F)F)c3)ccc2O1)C(=O)O` [Compound 46K, (R)-2-methyl-3-((S)-6-(3-(trifluoromethyl)phenyl)-4-((3-(trifluoromethyl)phenyl)sulfonyl)-3,4-dihydro-2H-benzo[b][1,4]-oxazin-2-yl)propanoic acid] the same measures were under 500 nM and “*** (The symbol “***” indicates a value in the range of greater than 150 to 200)”.
